Measured values reported in patent US11077092B2, “Methods of treating diabetes by administering a glucagon receptor antagonist in combination with a cholesterol absorption inhibitor” (Merck Sharp & Dohme Corp., priority 2012, dated 2021).

How the values were obtained:
type 2 diabetic patients = assay type: in vivo, human
Method: In phase 2b trial studies of Compound D, the average plasma levels of LDL-c in the placebo, Compound D@20, 40, 60, 80 mg, and metformin@2 g groups were 112.3, 117.7, 117.3, 110.0, 111.9, and 113.8 mg/dl at baseline, respectively. Plasma levels of LDL-c of the majority of the patients were within the normal range (≤130 mg/dl) according to the guideline of the American Heart Association and Mayo Clinic. After 12-week treatment, the average plasma levels of LDL-c were 105.4, 117.7, 123.2, 119.7, 126.6, and 111.1 mg/dl, respectively.
The following table illustrates the plasma levels of LDL-c in the patients in the phase 2b trial of Compound D. Type 2 diabetic patients with fasting glucose level of 140 to 240 mg/dl were recruited to the phase 2b trial of Compound D. After a 6-wk washout of any previous anti-hyperglycemic agents, patients were treated with placebo, Compound D QD@20, 40, 60, and 80 mg, and metformin BID@1 g for 12 wks. Values in bold are the percentage of patients on Day-1 and wk 12 less than or equal to the designated cutoff values at 130, 110, 100, and 70 mg/dl.
The baseline plasma level of LDL-c (Day -1) was plotted with the % change of LDL-c at week 12 from baseline.
In the 46 patients on Compound D@60 mg in the phase 2b trial, 14 patients were on statins during the 12-wk trial. […] LDL-c (despite the presence of the statin); see FIG. 17.

hGCGR mice [1] = test: Combination treatment of GRAs with ezetimibe in hGCGR mice (Example 9); assay type: in vivo; details: for plasma total cholesterol: GRA alone 30 mpk QD for 9 days
From the text: FIGS. 15A-B illustrate total plasma cholesterol (FIG. 15A) and cholesterol absorption (FIG. 15B) upon sub-chronic treatment of hGCGR mice with vehicle. GRA Compound A (30 mpk), ezetimibe (10 mpk), or Compound A (30 mpk)+ezetimibe (10 mpk) QD for 9 days.
FIGS. 16A-B illustrate total plasma cholesterol (FIG. 16A) and cholesterol absorption (FIG. 16B) upon sub-chronic treatment of hGCGR mice with vehicle, GRA Compound D (30 mpk), Compound E (30 mpk), Compound D (30 mpk)+ezetimibe (10 mpk), or Compound E (30 mpk)+ezetimibe (10 mpk) QD for 9 days.
A similar protocol was deployed in this part of work except ezetimibe was added to the combination treatment groups. Briefly, male hGCGR mice at ˜12 wks of age were treated with vehicle, ezetimibe@10 mpk, Compound A@30 mpk, Compound D@30 mpk, Compound E@30 mpk, Compound A@30 mpk+ezetimibe@10 mpk, Compound D@30 mpk+ezetimibe@10 mpk, Compound E@30 mpk+ezetimibe@10 mpk. Plasma total cholesterol, phytosterol, cholesterol absorption, and cholesterol synthesis were quantified using the same assays as described before.

hGCGR mice [2] = test: Sub-chronic study of Compound D in hGCGR mice: glucagon-induced glucose tolerance test and plasma phytosterols (Example 5); assay type: in vivo; details: 3 and 10 mpk, Day 1
Method: Male wild type and hGCGR mice on chow diet were treated with vehicle or GRA Compound D@3 and 10 mpk. On Day 1, mice were administered vehicle or Compound D followed by a glucagon-induced glucose tolerance test. On Day 5, mice were fasted at 7:30 am. After dosing at ˜9:00 am, blood glucose was measured at 2-h post dose with a glucometer. At 6-h post dose, tail blood was collected for a PK measurement. Mice were euthanized with CO2, and blood was collected by cardiac puncture. The liver was snap frozen in liquid nitrogen with a freezing clamp and saved in −80° C.
Plasma was isolated by centrifuging the blood at 8000 rpm for 5 min. Plasma level of total cholesterol was measured by an enzymatic colorimetric method (Wako Chemicals Inc.). Plasma levels of lathosterol and Phytosterol was measured by LC/MS.

hGCGR mice [3] = test: Sub-chronic treatment of hGCGR mice with GRA (Example 1): plasma total cholesterol, phytosterols, lathosterol, cholesterol synthesis; assay type: in vivo; details: 30 mpk QD for 5 days, vs vehicle
Method: Male hGCGR mice (Transgenic Research, 8:295-302, 1999) at ˜12 wks of age maintained on chow diet were treated with vehicle and GRA Compounds A, B, and C at 30 mpk QD for 5 days (n=8). On Day 1, mice were administered the compounds followed by glucagon-induced glucose tolerance test. On Day 5, mice were fasted at 7:30 am. After dosing at ˜9:00 am, the blood glucose was measured at 2-h post dose with a glucometer; see FIG. 1. At 6-h post dose, the tail blood was collected for PK measurement. Mice were euthanized with CO2, and blood was collected by cardiac puncture. The liver was snap frozen in liquid nitrogen with a freezing clamp and saved in −80° C. Plasma was isolated by centrifuging the blood at 8000 rpm for 5 min. The plasma level of total cholesterol was measured by biochemical assay (Wako Chemicals Inc.). The plasma level of lathosterol and phytosterol was measured by LC/MS. To determine cholesterol synthesis. D2O was administered i.p. at 20 ml/kg on 24 h prior to takedown of the mice. The level of D2 in plasma water and plasma cholesterol was assayed by GC/MS for cholesterol synthesis. Asterisks denote statistical significance between treatment and vehicle groups.

hGCGR mice [4] = test: hGCGR mice, 5 day treatment with GRA Compound A and positive control LXR agonist (Example 2): plasma total cholesterol and LDL-c; assay type: in vivo; details: comparing with vehicle
From the text: FIG. 6 illustrates plasma levels of total cholesterol and LDL-c in hGCGR mice following a 5 day treatment with GRA Compound A and positive control LXR agonist.
It is important to note that lipoprotein profiles of mouse and human are fundamentally different. In mice, the major lipoproteins are in HDL while in humans the main lipoproteins are in LDL-c. In preclinical studies, hGCGR mice were used as the model for in vivo study. Plasma level of total cholesterol was used as a more reliable parameter to indicate the effect of GRAS on cholesterol metabolism.

hGCGR mice [5] = test: Dual tracer study for cholesterol absorption in hGCGR mice (Example 4); assay type: in vivo; details: 30 mpk QD for 9 days
Method: Male hGCGR mice at ˜12 wks of age maintained on chow or high cholesterol diet (n=8 group) were treated with vehicle and GRA Compound A@30 mpk QD for 9 days. Twenty four-hour feces before treatment and 3 days after treated were collected for fecal cholesterol characterization. On Day 4, mice were dosed with vehicle (0.5% MC, BID) or Compound A followed by administration with D6-cholesterol@15 mpk through p.o. and 13C-cholesterol@15 mpk through i.v. Blood was collected at 4, 24, 48, 72, and 96 h post injection by tail bleeding. For cholesterol synthesis, D2O was administered i.p. at 20 ml/kg on Day 7. On day 8, tail blood was collected for PK and mice were taken down for blood and liver collection. Plasma was isolated from blood by centrifuge at 8000 rpm for 5 min and submitted for GC/MS assay for cholesterol synthesis and absorption. Feces were sent to Taconic for fecal cholesterol assay. Asterisks denote statistical significance between treatment and vehicle groups. * p<0.05, **p<0.01, and ***p<0.001 by ANOVA.

[6] = ezetimibe 10 mpk combined with Compound A, D or E 30 mpk, QD for 9 days

SMILES: COc1ccc2cc(-c3cc(-c4cc(Cl)cc(Cl)c4)nn3[C@@H](C)c3ccc(C(=O)NCCC(=O)O)cc3)ccc2c1 [Compound D, N-(4-{(1S)-1-[3-(3,5-dichlorophenyl)-5-(6-methoxy-2-naphthyl)-1H-pyrazol-1-yl]ethyl}benzoyl)-β-alanine]
- blood glucose levels (type 2 diabetic patients; 60 mg, 12-wk trial, in most patients): substantial reduction
- plasma total cholesterol (hGCGR mice [1]): significantly increased or tended to increase
- glucagon-induced glucose excursion (hGCGR mice [2]): suppressed

SMILES: Cc1cc(OC(CCC(F)(F)F)c2ccc(C(=O)NCCC(=O)O)cc2)cc(C)c1-c1ccc(C(C)(C)C)cc1 (stereo not shown) [Compound B, 3-{4-[1-(4′-tert-butyl-2,6-dimethyl-biphenyl-4-yloxy)-4,4,4-trifluoro-butyl]-benzoylamino}-propionic acid]
- plasma total cholesterol (hGCGR mice [3]): induced

SMILES: Cc1cc(OC(CCC(C)(C)C)c2ccc(C(=O)NCCC(=O)O)cc2)cc(C)c1-c1ccc(C(F)(F)F)cc1 (stereo not shown) [Compound C, 3-{4-[1-(2,6-Dimethyl-4′-trifluoromethyl-biphenyl-4-yloxy)-4,4-dimethyl-pentyl]-benzoylamino}-propionic acid]
- plasma total cholesterol (hGCGR mice [3]): induced

SMILES: CCC[C@H](c1ccc(C(=O)NCCC(=O)O)cc1)[C@H](c1ccc(Cl)cc1)c1c[nH]c2c(F)cc(C)cc12 [Compound E, N-(4-{(1S)-1-[(R)-(4-chlorophenyl)(7-fluoro-5-methyl-1H-indol-3-yl)methyl]butyl}benzoyl)-β-alanine]
- plasma total cholesterol (hGCGR mice [1]): significantly increased or tended to increase

SMILES: COc1ccc2cc(-c3cc(-c4cc(C(F)(F)F)ccc4F)nn3[C@@H](C)c3ccc(C(=O)NCCC(=O)O)cc3)ccc2c1 [Compound A]
- plasma total cholesterol (hGCGR mice [3]): induced
- plasma level of LDL-c (hGCGR mice [4]): significantly increased
- plasma level of total cholesterol (hGCGR mice [4]): significantly increased
- plasma total cholesterol (hGCGR mice [5]): significantly increased
- plasma total cholesterol (hGCGR mice [1]): significantly increased or tended to increase

SMILES: O=S(=O)(c1ccccc1)N(CC(F)(F)F)c1ccc(C(O)(C(F)(F)F)C(F)(F)F)cc1 [Compound T, reference compound]
- plasma level of LDL-c (hGCGR mice [4]): significantly increased
- plasma level of total cholesterol (hGCGR mice [4]): significantly increased

SMILES: O=C1[C@H](CC[C@H](O)c2ccc(F)cc2)[C@@H](c2ccc(O)cc2)N1c1ccc(F)cc1 [ezetimibe, reference compound]
- induction of cholesterol absorption caused by GRAs (hGCGR mice [1]; [6]): prevented the induction
- induction of total cholesterol caused by GRAs (hGCGR mice [1]; [6]): prevented the induction

SMILES: CN(C)C(=N)N=C(N)N [Metformin, metformin, reference compound]
- average plasma level of LDL-c (type 2 diabetic patients; human, in vivo): 113.8 mg/dL
- increase of LDL-c after 12-week treatment (type 2 diabetic patients; human, in vivo): 2.2%
- percentage of patients with plasma LDL-c less than or equal to 110 mg/dl (type 2 diabetic patients; human, in vivo): 54.2 percentage
- percentage of patients with plasma LDL-c less than or equal to 130 mg/dl (type 2 diabetic patients; human, in vivo): 70.8 percentage
